Laboratory results published in patent publication US8138207B2, “Aminocarbonyl-substituted 8-N-benzimidazoles, methods for their preparation and their use in pharmaceutical compositions” (Sanofi-Aventis, priority 2005, dated 2012).
pIC50: −log10 of the molar value. Counter-ions that a name gives are not always drawn.

Molecular target: T1, DPP-IV from porcine kidneys (Sus scrofa, UniProt P22411)
T1 construct: DPP-IV from porcine kidneys (Sigma, Munich); purchased Sigma, Munich; host or cells: porcine kidney tissue
Experiment: Measurement of the DPP-IV activity (fluorimetric, H-Ala-Pro-AFC substrate)
Format: biochemical
Conditions: substrate H-Ala-Pro-AFC 15 μM, Tris/HCl pH 7.4, room temperature
Experimental: Measurement of the DPP-IV Activity:
DPP-IV from porcine kidneys (Sigma, Munich)
H-Ala-Pro-AFC (Bachem, Weil am Rhein)
DPP-IV (1 mU/ml, end concentration)
H-Ala-Pro-AFC (15 μm end concentration)
in Tris/HCl (40 mM, pH 7.4), total volume 0.2 ml
The reaction was performed at room temperature for different periods (typically 10 minutes) and stopped at the end of the reaction by adding 20 μl of ZnCl2 (1 M). The conversion of H-Ala-Pro-AFC was determined fluorimetrically by measuring the emission at 535 nm on excitation at 405 nm. In the case of addition of inhibitors, the buffer volume added was adjusted such that a total volume of the test mixture of 200 μl maintained.
% inhibition at a fixed concentration was calculated as follows: (1-enzyme activityinhibited reaction/enzyme activityuninhibited reaction)×100
IC50 values for inhibitors were determined by varying the inhibitor concentrations in the case of the specified substrate concentration of 15 μM. Ki and Km values were determined by corresponding variation of substrate and inhibitor concentration as described (Dixon, M. and Webb, E. C. (1979) Enzymes, third edition, pp. 47-206, Academic Press). The values for Km, IC50 and Ki were calculated using a commercially available software package (Leatherbarrow, R. J. (1992) GraFit Version 3.0, Erithacus Software Ltd. Staines, U.K.).

T1 sequence (P22411 whole entry): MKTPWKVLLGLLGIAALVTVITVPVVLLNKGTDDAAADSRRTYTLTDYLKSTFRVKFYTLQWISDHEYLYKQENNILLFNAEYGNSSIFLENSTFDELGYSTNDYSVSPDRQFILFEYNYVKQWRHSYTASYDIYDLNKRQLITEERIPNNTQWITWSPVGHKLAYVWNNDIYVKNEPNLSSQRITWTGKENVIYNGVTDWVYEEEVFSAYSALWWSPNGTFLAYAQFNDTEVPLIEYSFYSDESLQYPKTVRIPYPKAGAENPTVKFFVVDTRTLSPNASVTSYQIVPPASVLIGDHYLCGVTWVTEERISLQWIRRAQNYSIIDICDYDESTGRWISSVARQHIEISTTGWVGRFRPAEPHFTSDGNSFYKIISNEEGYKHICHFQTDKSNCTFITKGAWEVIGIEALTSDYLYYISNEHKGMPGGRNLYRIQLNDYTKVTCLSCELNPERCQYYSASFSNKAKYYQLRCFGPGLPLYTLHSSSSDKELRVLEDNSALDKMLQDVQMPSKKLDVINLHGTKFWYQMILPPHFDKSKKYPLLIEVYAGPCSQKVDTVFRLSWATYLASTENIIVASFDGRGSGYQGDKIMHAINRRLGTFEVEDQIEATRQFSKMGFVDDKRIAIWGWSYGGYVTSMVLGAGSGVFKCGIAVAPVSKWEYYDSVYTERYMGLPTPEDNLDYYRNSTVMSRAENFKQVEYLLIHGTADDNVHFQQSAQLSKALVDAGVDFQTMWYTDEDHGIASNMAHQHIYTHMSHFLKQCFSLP

CC(C)=CCn1c(N2CCC[C@@H](N)C2)nc2ccc(NC(=O)Cc3ccccc3)cc21 [Example 2]
pIC50: 5.57

CC(C)=CCn1c(N2CCC[C@@H](N)C2)nc2ccc(NC(=O)c3ccccc3)cc21 [Example 1, R—N-[2-(3-Aminopiperidin-1-yl)-1-(3-methylbut-2-enyl)-1H-benzimidazol-6-yl]-benzamide trifluoroacetic acid salt]
pIC50: 5.60
